Measurements from ChEMBL document CHEMBL4477233, “Discovery of novel TAOK2 inhibitor scaffolds from high-throughput screening” (Bioorg Med Chem Lett, 2016).

How the values were obtained:
[1] = biological target: T1, Interleukin-1 receptor-associated kinase 4 (Homo sapiens) (UniProt Q9NWZ3); test: Inhibition of human IRAK4; conditions: concentration not given here
T1 sequence (whole entry): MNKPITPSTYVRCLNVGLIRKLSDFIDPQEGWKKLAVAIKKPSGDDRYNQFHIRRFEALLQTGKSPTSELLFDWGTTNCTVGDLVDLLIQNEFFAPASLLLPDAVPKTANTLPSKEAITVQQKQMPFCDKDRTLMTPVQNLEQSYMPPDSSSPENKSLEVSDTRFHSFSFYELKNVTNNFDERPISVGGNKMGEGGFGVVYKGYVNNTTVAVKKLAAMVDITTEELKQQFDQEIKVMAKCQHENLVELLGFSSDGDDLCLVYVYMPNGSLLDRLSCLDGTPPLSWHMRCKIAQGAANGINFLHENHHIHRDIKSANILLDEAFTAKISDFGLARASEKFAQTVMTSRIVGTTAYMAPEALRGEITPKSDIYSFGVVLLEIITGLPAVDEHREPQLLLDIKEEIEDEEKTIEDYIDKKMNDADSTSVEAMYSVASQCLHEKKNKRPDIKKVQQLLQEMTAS

[2] = biological target: RAF proto-oncogene serine/threonine-protein kinase (Homo sapiens) (UniProt P04049); test: Inhibition of human RAF-1; conditions: concentration not given here
[3] = biological target: T2, Serine/threonine-protein kinase TAO2 (Rattus norvegicus, UniProt Q9JLS3); test: Inhibition of rat TAOK2 (1 to 320 residues) expressed in Baculovirus/insect cell expression system using MBP as substrate measured after 10 mins in presence of [32P]ATP by radiometric assay
T2 sequence (Q9JLS3 whole entry): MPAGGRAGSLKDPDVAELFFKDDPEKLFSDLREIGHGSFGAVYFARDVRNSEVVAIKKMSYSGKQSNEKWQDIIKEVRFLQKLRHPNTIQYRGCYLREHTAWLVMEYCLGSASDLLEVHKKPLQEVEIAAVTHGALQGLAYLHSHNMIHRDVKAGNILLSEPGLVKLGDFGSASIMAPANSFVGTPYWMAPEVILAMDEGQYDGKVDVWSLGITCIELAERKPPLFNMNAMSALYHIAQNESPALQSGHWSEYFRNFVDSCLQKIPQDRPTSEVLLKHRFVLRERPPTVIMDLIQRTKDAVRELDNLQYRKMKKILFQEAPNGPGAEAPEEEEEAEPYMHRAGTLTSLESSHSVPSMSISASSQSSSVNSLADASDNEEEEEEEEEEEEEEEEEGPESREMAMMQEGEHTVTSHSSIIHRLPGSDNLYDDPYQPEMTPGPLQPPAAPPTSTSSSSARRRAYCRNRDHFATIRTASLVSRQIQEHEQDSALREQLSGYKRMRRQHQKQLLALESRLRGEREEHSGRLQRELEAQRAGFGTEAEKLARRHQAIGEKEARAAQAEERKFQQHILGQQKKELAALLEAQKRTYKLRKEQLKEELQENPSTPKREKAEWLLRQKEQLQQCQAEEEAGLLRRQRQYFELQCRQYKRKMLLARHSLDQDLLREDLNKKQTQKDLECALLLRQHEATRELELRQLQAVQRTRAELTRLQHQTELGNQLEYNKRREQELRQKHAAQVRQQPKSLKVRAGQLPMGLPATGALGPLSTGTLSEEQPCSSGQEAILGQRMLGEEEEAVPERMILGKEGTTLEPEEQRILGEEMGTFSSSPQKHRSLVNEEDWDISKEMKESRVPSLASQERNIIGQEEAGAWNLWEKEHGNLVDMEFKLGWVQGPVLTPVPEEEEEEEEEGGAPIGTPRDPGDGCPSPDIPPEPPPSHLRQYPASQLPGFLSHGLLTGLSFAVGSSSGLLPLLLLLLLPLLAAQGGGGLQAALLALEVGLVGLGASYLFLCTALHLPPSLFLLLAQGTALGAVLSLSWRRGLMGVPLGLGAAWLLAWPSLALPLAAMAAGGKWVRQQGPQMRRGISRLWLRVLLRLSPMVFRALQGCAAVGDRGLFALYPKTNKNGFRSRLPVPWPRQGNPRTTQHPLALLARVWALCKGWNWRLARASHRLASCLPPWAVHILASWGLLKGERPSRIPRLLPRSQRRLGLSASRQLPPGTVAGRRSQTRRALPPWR

Chain of RAF proto-oncogene serine/threonine-protein kinase (Homo sapiens) (P04049 whole entry, the tested form may be a part): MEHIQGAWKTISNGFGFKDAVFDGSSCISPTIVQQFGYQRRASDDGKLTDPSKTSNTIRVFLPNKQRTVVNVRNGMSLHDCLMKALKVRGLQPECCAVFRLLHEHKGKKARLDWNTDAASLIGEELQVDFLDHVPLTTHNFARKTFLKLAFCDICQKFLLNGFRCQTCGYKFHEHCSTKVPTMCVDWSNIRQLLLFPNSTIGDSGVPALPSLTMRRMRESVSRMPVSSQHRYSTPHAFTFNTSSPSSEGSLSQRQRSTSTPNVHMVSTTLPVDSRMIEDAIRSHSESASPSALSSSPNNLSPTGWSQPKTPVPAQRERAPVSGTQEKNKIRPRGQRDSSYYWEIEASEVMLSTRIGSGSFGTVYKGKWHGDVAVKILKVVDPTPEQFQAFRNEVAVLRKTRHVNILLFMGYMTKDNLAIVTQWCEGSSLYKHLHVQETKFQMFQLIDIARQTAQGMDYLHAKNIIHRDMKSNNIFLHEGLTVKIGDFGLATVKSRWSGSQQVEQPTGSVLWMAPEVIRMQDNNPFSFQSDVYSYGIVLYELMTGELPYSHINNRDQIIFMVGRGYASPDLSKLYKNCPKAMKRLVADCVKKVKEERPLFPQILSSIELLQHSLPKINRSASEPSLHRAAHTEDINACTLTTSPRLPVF

inhibition [1]: > 50% | inhibition [2]: > 50% | IC50 [3]: 300 nM
Compound: CCC(=O)Nc1nc(C)c(-c2csc(Nc3cc(OC)ccc3OC)n2)s1
